Converted amounts (≈) assume the structure as drawn.
How the values were obtained:
KB = assay: Cytotoxicity against human KB cells; format: functional, cell-based
L1210 = assay: Cytotoxicity against mouse L1210 cells; format: functional, cell-based
[1] = test system: Trichophyton mentagrophytes; assay: Antifungal activity against Trichophyton mentagrophytes; format: functional

Row | MIC [1] [µg/mL] | Structure (SMILES) | IC50 (KB) [µg/mL] | IC50 (L1210) [µg/mL]
1 |  | CC(C)=CCCC1(C)C=CC2=C(O1)C(C)(C)C(=O)C(C(=O)C(C)C)=C2O (configuration not stated) [PETIOLIN A] | 4.8 (≈ 13.4 µM) | 2.5 (≈ 6.97 µM)
2 |  | CCC(C)C(=O)C1=C(O)C2=C(OC(C)(CCC=C(C)C)C=C2)C(C)(C)C1=O (configuration not stated) [PETIOLIN B] | 9.6 (≈ 25.8 µM) | > 10
3 | 33.3 (≈ 88.4 µM) | CC(C)=CCC[C@@](C)(O)[C@@H]1CC2=C(O1)/C(=C(/O)C(C)C)C(=O)C(C)(C)C2=O [PETIOLIN C] | 4.9 (≈ 13 µM) | 3.3 (≈ 8.77 µM)

Source: ChEMBL document CHEMBL1150289, “Petiolins A-C, phloroglucinol derivatives from Hypericum pseudopetiolatum var. kiusianum” (Bioorg Med Chem, 2008)
